Target: T1, PLCγ2-P522R (Homo sapiens, UniProt P16885, P522R)
T1 construct: gene PLCG2
T1 sequence (P16885 1-1195 P522R): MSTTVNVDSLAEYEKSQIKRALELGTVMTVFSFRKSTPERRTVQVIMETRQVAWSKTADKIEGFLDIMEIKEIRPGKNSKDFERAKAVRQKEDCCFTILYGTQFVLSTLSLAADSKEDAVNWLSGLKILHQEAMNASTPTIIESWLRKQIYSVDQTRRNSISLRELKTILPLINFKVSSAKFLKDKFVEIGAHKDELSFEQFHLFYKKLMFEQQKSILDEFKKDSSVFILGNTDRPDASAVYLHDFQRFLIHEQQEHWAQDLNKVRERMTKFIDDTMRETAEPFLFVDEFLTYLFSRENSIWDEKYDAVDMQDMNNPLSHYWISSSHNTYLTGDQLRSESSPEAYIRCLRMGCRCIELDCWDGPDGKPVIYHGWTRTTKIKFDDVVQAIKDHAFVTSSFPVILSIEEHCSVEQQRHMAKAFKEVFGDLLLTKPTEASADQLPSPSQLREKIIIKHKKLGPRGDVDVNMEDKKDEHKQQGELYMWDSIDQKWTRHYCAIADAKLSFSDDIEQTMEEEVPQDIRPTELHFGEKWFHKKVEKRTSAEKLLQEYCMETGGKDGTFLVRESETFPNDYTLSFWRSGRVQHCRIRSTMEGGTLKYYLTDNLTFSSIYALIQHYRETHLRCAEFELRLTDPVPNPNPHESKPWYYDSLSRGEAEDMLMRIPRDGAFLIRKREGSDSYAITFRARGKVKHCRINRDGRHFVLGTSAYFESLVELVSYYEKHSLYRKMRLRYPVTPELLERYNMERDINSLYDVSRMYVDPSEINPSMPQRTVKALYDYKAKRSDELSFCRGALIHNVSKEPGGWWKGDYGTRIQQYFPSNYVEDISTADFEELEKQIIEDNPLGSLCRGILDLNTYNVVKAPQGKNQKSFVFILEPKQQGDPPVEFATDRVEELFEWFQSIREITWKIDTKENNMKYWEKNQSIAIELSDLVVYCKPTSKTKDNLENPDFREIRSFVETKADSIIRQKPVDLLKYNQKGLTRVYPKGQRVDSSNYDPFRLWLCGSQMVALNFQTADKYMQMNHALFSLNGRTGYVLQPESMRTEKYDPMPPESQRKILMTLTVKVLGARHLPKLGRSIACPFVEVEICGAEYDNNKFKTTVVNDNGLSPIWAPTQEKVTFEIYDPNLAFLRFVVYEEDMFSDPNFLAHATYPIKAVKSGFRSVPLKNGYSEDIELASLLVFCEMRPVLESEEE
Assay: fluorogenic micelle enzyme assay
Assay type: biochemical

Structure (SMILES): CCCCCCCCCCCCCCCCOc1cc(COC(=O)Nc2ccc3c(C(F)(F)F)cc(=O)oc3c2)ccc1OP(=O)(O)O[C@@H]1[C@H](O)[C@H](O)[C@@H](OP(=O)(O)O)[C@H](OP(=O)(O)O)[C@H]1O [C16CF3-coumarin]
- fluorogenic micelle enzyme assay: both PLCγ1-D1665H and PLCγ2-P522R were able to process the C16CF3-coumarin substrate faster than the corresponding wild-type enzymes
